These results are taken from US20200062773A1, “4,4a,5,7-TETRAHYDRO-3H-FURO[3,4-b]PYRIDINYL COMPOUNDS” (Janssen Pharmaceutlca NV, priority 2016, published 2020).

For one experiment, the target named is T1, BACE1 (Homo sapiens, UniProt P56817).
T1 construct: recombinant BACE1 protein in a final concentration of 1 μg/ml
Put plainly: BACE1 biochemical FRET based assay. Conditions: Method 1: recombinant BACE1 1 μg/ml, 120 min at room temperature, pH 5.0; for IC50: read-out: Biochemical FRET based assay pIC50 (converted). An excerpt: BACE1 Biochemical Fret Based Assay
(§1) This assay is a Fluorescence Resonance Energy Transfer Assay (FRET) based assay. The substrate for this assay is an APP derived 13 amino acids peptide that contains the ‘Swedish’ Lys-Met/Asn-Leu mutation of the amyloid precursor protein (APP) beta-site APP-cleaving enzyme cleavage site. This substrate also contains two fluorophores: (7-methoxycoumarin-4-yl) acetic acid (Mca) is a fluorescent donor with excitation wavelength at 320 nm and emission at 405 nm and 2,4-Dinitrophenyl (Dnp) is a proprietary quencher acceptor. […] Upon cleavage by BACE1, the fluorophore Mca is separated from the quenching group Dnp, restoring the full fluorescence yield of the donor. The increase in fluorescence is linearly related to the rate of proteolysis.
Briefly in a 384-well format recombinant BACE1 protein in a final concentration of 1 μg/ml is incubated for 120 minutes at room temperature with 10 μm substrate in incubation buffer (40 mM Citrate buffer pH 5.0, 0.04% PEG, 4% DMSO) in the absence or presence of compound. Next the amount of proteolysis is directly measured by fluorescence measurement at T=0 and T=120 (excitation at 320 nm and emission at 405 nm). Results are expressed in RFU (Relative Fluorescence Units), as difference between T120 and T0.
(§2) A best-fit curve is fitted by a minimum sum of squares method to the plot of % Controlmin versus compound concentration. From this an IC50 value (inhibitory concentration causing 50% inhibition of activity) can be obtained.

Experiment [1] deals with Abeta 1-42 produced and secreted into the medium of human neuroblastoma SKNBE2 cells. Description: Cellular αLisa assay in SKNBE2 cells. It is filed as cell-based. Conditions: human neuroblastoma SKNBE2 cells expressing hAPP695, 18 hours incubation. On the procedure: Cellular αLisa Assay in SKNBE2 Cells
In two αLisa assays the levels of Abeta 1-42 produced and secreted into the medium of human neuroblastoma SKNBE2 cells are quantified. The assay is based on the human neuroblastoma SKNBE2 expressing the wild type Amyloid Precursor Protein (hAPP695). The compounds are diluted and added to these cells, incubated for 18 hours and then measurements of Abeta 1-42 are taken. Abeta 1-42 are measured by sandwich αLisa. αLisa is a sandwich assay using biotinylated antibody AbN/25 attached to streptavidin coated beads and antibody cAb42/26 conjugated acceptor beads for the detection of Abeta 1-42 respectively. In the presence of Abeta 1-42, the beads come into close proximity. The excitation of the donor beads provokes the release of singlet oxygen molecules that trigger a cascade of energy transfer in the acceptor beads, resulting in light emission. Light emission is measured after 1 hour incubation (excitation at […] and emission at 615 nm).
as §2

The next experiment concerns the target T2, BACE2 (Homo sapiens, UniProt Q9Y5Z0).
T2 construct: recombinant BACE2 protein in a final concentration of 0.4 μg/ml
T2 sequence (Q9Y5Z0 63-518): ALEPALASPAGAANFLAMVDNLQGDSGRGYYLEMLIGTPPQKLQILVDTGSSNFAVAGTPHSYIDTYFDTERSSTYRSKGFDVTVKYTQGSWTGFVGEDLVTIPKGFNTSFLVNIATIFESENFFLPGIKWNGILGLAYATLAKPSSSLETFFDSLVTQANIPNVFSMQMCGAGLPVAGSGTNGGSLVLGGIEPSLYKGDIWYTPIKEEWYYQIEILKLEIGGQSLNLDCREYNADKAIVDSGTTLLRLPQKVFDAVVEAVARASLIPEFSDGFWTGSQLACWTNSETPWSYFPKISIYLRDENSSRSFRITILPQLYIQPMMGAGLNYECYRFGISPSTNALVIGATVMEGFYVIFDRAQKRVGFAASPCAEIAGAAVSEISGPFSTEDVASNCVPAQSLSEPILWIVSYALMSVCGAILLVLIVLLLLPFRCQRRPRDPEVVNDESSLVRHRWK
Put plainly: BACE2 biochemical FRET based assay. Conditions: recombinant BACE2, 450 minutes at room temperature, pH 5.0; for IC50: read-out: Biochemical FRET based assay pIC50 (converted).
Source text: BACE2 Biochemical FRET Based Assay
as §1, with “assay” for “assay is an APP derived 13 amino acids peptide that”, “the beta-site APP-cleaving enzyme,” for “BACE1,”
Briefly in a 384-well format recombinant BACE2 protein in a final concentration of 0.4 μg/ml is incubated for 450 minutes at room temperature with 10 μM substrate in incubation buffer (50 mM Citrate buffer pH 5.0, 0.05% PEG, no DMSO) in the absence or presence of compound. Next the amount of proteolysis is directly measured by fluorescence measurement at T=0 and T=450 (excitation at 320 nm and emission at 405 nm). Results are expressed in RFU (Relative Fluorescence Units), as difference between T450 and T0.
as §2

T1 sequence (P56817 46-501): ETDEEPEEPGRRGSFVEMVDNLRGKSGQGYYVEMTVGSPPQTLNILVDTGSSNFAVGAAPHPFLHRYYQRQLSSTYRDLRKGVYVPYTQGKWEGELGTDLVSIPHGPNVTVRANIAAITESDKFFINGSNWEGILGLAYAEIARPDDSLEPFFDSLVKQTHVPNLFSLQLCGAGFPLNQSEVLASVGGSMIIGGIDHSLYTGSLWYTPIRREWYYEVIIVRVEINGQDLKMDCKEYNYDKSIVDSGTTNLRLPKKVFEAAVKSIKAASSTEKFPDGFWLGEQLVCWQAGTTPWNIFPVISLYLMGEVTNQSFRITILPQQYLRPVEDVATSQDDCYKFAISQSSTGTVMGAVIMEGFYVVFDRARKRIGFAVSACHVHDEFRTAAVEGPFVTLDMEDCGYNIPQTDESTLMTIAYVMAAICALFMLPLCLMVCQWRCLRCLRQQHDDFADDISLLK

Take `CC1OCC2(c3cc(NC(=O)c4cnc(-n5cncn5)cn4)cc(F)c3F)N=C(N)C(C)(C#N)CC12` (single isomer, unassigned) [32b]: the IC50 is 309 nM on BACE1 and 9550 nM at BACE2. The “Cellular αLisa assay in SKNBE2 cells Abeta 42 pIC50” value (“Cellular αLisa assay” below) in experiment [1] was found to be 5.97.

For the compound `CC1OCC2(c3cc(NC(=O)c4ccc(C#N)cn4)cc(F)c3F)N=C(N)C(C)(C#N)CC12` (single isomer, unassigned) [33a], the IC50 is 7590 nM on BACE1 and greater than 10000 nM at BACE2. Besides, the “Cellular αLisa assay” value in experiment [1] was 5.14.

`CC1OCC2(c3cc(NC(=O)c4ccc(C#N)cn4)cc(F)c3F)N=C(N)C(C)(C#N)CC12` (single isomer, unassigned) [33b]: the IC50 at BACE1 is 5.5 nM; on BACE2, 44.7 nM. Moreover, the “Cellular αLisa assay” value in experiment [1] is 7.81.

On to `CC1OCC2(c3cc(NC(=O)c4ccc(C#N)cn4)cc(F)c3F)N=C(N)C(C)(C#N)CC12` (single isomer, unassigned) [33c], for which the figures for the IC50 at BACE1 and on BACE2 were 35.5 nM and 468 nM, respectively. In experiment [1], the “Cellular αLisa assay” value was found to be 7.37.

Consider `CC1OCC2(c3cc(NC(=O)c4ccc(C#N)cn4)cc(F)c3F)N=C(N)C(C)(C#N)CC12` (single isomer, unassigned) [33d], for which the IC50 was 708 nM on BACE1 and 8910 nM on BACE2. Further, in experiment [1], the “Cellular αLisa assay” value is 5.78.

As to `CC1(C#N)CC2C(C(F)(F)F)OCC2(c2cc(NC(=O)c3cnc(-n4cncn4)cn3)ccc2F)N=C1N` (single isomer, unassigned) [34a], the values for the IC50 on BACE1 and on BACE2 were 6.31 nM and 263 nM, respectively. Further, in experiment [1], the “Cellular αLisa assay” value is 7.57.

On to `CC1(C#N)CC2C(C(F)(F)F)OCC2(c2cc(NC(=O)c3cnc(-n4cncn4)cn3)ccc2F)N=C1N` (single isomer, unassigned) [34b], for which the IC50 on BACE1 was 1020 nM; at BACE2 it was greater than 10000 nM. In addition, in experiment [1], the “Cellular αLisa assay” value is 5.31.

Take `CC1OCC2(c3cc(NC(=O)c4ccc(OC(F)F)cn4)ccc3F)N=C(N)C(C)(C#N)CC12` (single isomer, unassigned) [35a]: the IC50 on BACE1 was 5.62 nM; on BACE2 it was 83.2 nM. In experiment [1], the “Cellular αLisa assay” value came to 8.32.

Turning to `CC1OCC2(c3cc(NC(=O)c4ccc(OC(F)F)cn4)ccc3F)N=C(N)C(C)(C#N)CC12` (single isomer, unassigned) [35b], the IC50 was 741 nM at BACE1 and greater than 10000 nM at BACE2. In experiment [1], the “Cellular αLisa assay” value is 6.11.

Consider `COc1cnc(C(=O)Nc2ccc(F)c([C@@]34CO[C@@H](C)[C@@H]3C[C@](C)(C#N)C(N)=N4)c2)cn1` [1a], for which the “Biochemical FRET based assay pIC50” value on BACE1 is 5.05; on BACE2, less than 5. Moreover, the “Cellular αLisa assay” value in experiment [1] was determined as 5.12.

As to `COc1cnc(C(=O)Nc2ccc(F)c([C@]34CO[C@H](C)[C@H]3C[C@@](C)(C#N)C(N)=N4)c2)cn1` [1b], the “Biochemical FRET based assay pIC50” value on BACE1 is 7.89; at BACE2 it was 7.21. Also, the “Cellular αLisa assay” value in experiment [1] was found to be 8.47.

With `C[C@@]1(C#N)C[C@@H]2[C@@H](C(F)(F)F)OC[C@]2(c2cc(NC(=O)c3ccc(F)cn3)ccc2F)N=C1N` [2c], the “Biochemical FRET based assay pIC50” value is reported as 8.73 at BACE1 and 8.3 on BACE2. Besides, the “Cellular αLisa assay” value in experiment [1] stood at 8.32.

Turning to `C[C@]1(C#N)C[C@H]2[C@H](C(F)(F)F)OC[C@@]2(c2cc(NC(=O)c3ccc(F)cn3)ccc2F)N=C1N` [2d], the “Biochemical FRET based assay pIC50” value on BACE1 is reported as 5; on BACE2 it was less than 5. Besides, in experiment [1], the “Cellular αLisa assay” value is reported as less than 5.05.

Regarding `C[C@@]1(C#N)C[C@H]2[C@H](C(F)(F)F)OC[C@@]2(c2cc(NC(=O)c3ccc(F)cn3)ccc2F)N=C1N` [2e], the “Biochemical FRET based assay pIC50” value at BACE1 and on BACE2 was less than 5 in each case. In addition, in experiment [1], the “Cellular αLisa assay” value is less than 5.05.

Consider `C[C@]1(C#N)C[C@@H]2[C@@H](C(F)(F)F)OC[C@]2(c2cc(NC(=O)c3ccc(F)cn3)ccc2F)N=C1N` [2f], for which the “Biochemical FRET based assay pIC50” value on BACE1 worked out at 7.83; at BACE2, 7.35. For the same compound, in experiment [1], the “Cellular αLisa assay” value was found to be 7.47.

As to `C[C@]1(C#N)C[C@H]2[C@H](C(F)(F)F)OC[C@@]2(c2cc(NC(=O)c3ccc(C#N)cn3)ccc2F)N=C1N` [3d], the “Biochemical FRET based assay pIC50” value at BACE1 was 5.02; at BACE2, less than 5. The “Cellular αLisa assay” value in experiment [1] is given as less than 5.05.

Regarding `C[C@@]1(C#N)C[C@H]2[C@H](C(F)(F)F)OC[C@@]2(c2cc(NC(=O)c3ccc(C#N)cn3)ccc2F)N=C1N` [3e], the “Biochemical FRET based assay pIC50” value at BACE1 was 5.84; on BACE2 it was less than 5. Besides, the “Cellular αLisa assay” value in experiment [1] is reported as 5.34.

Consider `C[C@]1(C#N)C[C@@H]2[C@@H](C(F)(F)F)OC[C@]2(c2cc(NC(=O)c3ccc(C#N)cn3)ccc2F)N=C1N` [3f], for which the “Biochemical FRET based assay pIC50” value on BACE1 is listed as 8.33; on BACE2, 6.88. The “Cellular αLisa assay” value in experiment [1] was found to be 8.1.

Regarding `C[C@@H]1OC[C@@]2(c3cc(NC(=O)c4ccc(C#N)cn4)ccc3F)N=C(N)[C@@](C)(C#N)C[C@@H]12` [4c], the “Biochemical FRET based assay pIC50” value turned out to be 6.28 on BACE1 and 5.27 at BACE2. Moreover, the “Cellular αLisa assay” value in experiment [1] was 6.22.

Regarding `COc1cnc(C(=O)Nc2ccc(F)c([C@]34CO[C@H](C)[C@H]3C[C@](C)(C#N)C(N)=N4)c2)cn1` [5b], the “Biochemical FRET based assay pIC50” value on BACE1 came out at 7.06; on BACE2 it was 6.17. In addition, in experiment [1], the “Cellular αLisa assay” value is 7.46.

Take `COc1cnc(C(=O)Nc2ccc(F)c([C@@]34CO[C@@H](C)[C@@H]3C[C@@](C)(C#N)C(N)=N4)c2)cn1` [5c]: the “Biochemical FRET based assay pIC50” value on BACE1 and at BACE2 was less than 5 throughout. In addition, in experiment [1], the “Cellular αLisa assay” value is recorded as less than 5.05.

Regarding `C[C@H]1OC[C@]2(c3cc(NC(=O)c4ccc(C#N)cn4)ccc3F)N=C(N)[C@@](C)(C#N)C[C@H]12` [6b], the figures for the “Biochemical FRET based assay pIC50” value at BACE1 and at BACE2 were 7.89 and 6.68, respectively. Moreover, the “Cellular αLisa assay” value in experiment [1] was 8.12.
